Laboratory results taken from patent publication US8591943B2, “Pyrazolo[1,5-a]pyrimidine derivatives as mTOR inhibitors” (Merck Sharp & Dohme Corp., priority 2009, dated 2013).

What was measured:
[1] = biological target: mTOR enzyme (Homo sapiens, UniProt P42345); assay: mTOR Kinase Assay; type: biochemical; conditions: rated A-F
Experimental: The mTOR assay buffer contains 10 mM hepes (pH 7.4), 50 mM NaCl, 100 μg/ml BSA, 50 mM B-glycerophosphate, 10 mM MnCl2 and 0.5 mM DTT. 20 ng of mTOR enzyme is preincubated with the compound for 10 minutes. 5 μM ATP and 0.1 μM GSTS6K is added. The reaction is incubated for one hour at 30° C. Anti phospho p70S6K (about 1.7 ng/well) and anti GSTXL665 (1:1 Ratio with the substrate GSTS6K) are added after incubating. The plates are read at least 2 hours after adding the anti phospho p70S6K and the anti GSTXL665.

[2] = biological target: T1, recombinant His-CHK1 (Homo sapiens, UniProt O14757); assay: CHK1 In Vitro Kinase Assay
T1 sequence (O14757 1-265 limits assumed): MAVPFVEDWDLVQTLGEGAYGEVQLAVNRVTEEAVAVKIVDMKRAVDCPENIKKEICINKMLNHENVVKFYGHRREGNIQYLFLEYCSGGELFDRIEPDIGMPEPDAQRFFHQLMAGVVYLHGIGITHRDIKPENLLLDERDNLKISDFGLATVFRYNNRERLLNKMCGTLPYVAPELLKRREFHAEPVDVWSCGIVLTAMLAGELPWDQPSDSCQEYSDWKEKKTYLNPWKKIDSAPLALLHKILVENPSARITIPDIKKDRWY

[3] = biological target: T2, Cyclin E/CDK2 (Homo sapiens, UniProt P24941); assay: In Vitro Cyclin E/CDK2 Kinase Assay; type: biochemical; conditions: rated A-F
T2 construct: made in house; host or cells: SF9 cells, baculovirus co-infection
From the text: Cyclin E was cloned into pVL1393 (Pharmingen, La Jolla, Calif.) by PCR, with the addition of 5 histidine residues at the amino-terminal end to allow purification on nickel resin. The expressed protein was approximately 45 kDa. CDK2 was cloned into pVL1393 by PCR, with the addition of a haemaglutinin epitope tag at the carboxy-terminal end (YDVPDYAS). The expressed protein was approximately 34 kDa in size.
Recombinant baculoviruses expressing cyclin E and CDK2 were co-infected into SF9 cells at an equal multiplicity of infection (MOI=5), for 48 hrs. Cells were harvested by centrifugation at 1000 RPM for 10 minutes, then pellets lysed on ice for 30 minutes in five times the pellet volume of lysis buffer containing 50 mM Tris pH 8.0, 150 mM NaCl, 1% NP40, 1 mM DTT and protease inhibitors (Roche Diagnostics GmbH, Mannheim, Germany). Lysates were spun down at 15000 RPM for 10 minutes and the supernatant retained. 5 mL of nickel beads (for one liter of SF9 cells) were washed three times in lysis buffer (Qiagen GmbH, Germany). Imidazole was added to the baculovirus supernatant to a final concentration of 20 mM, then incubated with the nickel beads for 45 minutes at 4° C. Proteins were eluted with lysis buffer containing 250 mM imidazole. Eluate was dialyzed about 15 hours in 2 liters of kinase buffer containing 50 mM Tris pH 8.0, 1 mM DTT, 10 mM MgCl2, 100 μM sodium orthovanadate and 20% glycerol. Enzyme was stored in aliquots at −70° C.
Cyclin E/CDK2 kinase assays can be performed as described below in low protein binding 96-well plates (Corning Inc, Corning, N.Y.).
The substrate used in these reactions is a biotinylated peptide derived from Histone H1 (from Amersham, UK). The substrate is thawed on ice and diluted to 2 μM in kinase buffer. Test compounds are diluted in 10% DMSO to desirable concentrations. For each kinase reaction, 20 μL of the 50 μg/mL enzyme solution (1 μg of enzyme) and 20 μl of the 2 μM substrate solution are mixed, then combined with 10 μL of diluted compound in each well for testing. The kinase reaction is initiated by addition of 50 μL of 2 μM ATP and 0.1 μCi of ^33P-ATP (from Amersham, UK). The reaction is allowed to run for 1 hour at room temperature, then is stopped by adding 200 μL of stop buffer containing 0.1% Triton X-100, 1 mM ATP, 5 mM EDTA, and 5 mg/mL streptavidine coated SPA beads (from Amersham, UK) for 15 minutes. The SPA beads are then captured onto a 96-well GFIB filter plate (Packard/Perkin Elmer Life Sciences) using a Filtermate universal harvester (Packard/Perkin Elmer Life Sciences.). Non-specific signals are eliminated by washing the beads twice with 2M NaCl then twice with 2 M NaCl with 1% phosphoric acid. The radioactive signal can then be measured using, for example, a TopCount 96 well liquid scintillation counter (from Packard/Perkin Elmer Life Sciences).

| SMILES | IC50 [1] | IC50 [2] | IC50 [3] |
| --- | --- | --- | --- |
| Nc1c(Br)c(N2CCCS(=O)(=O)CC2)nc2c(-c3cnc4ccccc4c3)cnn12 [Compound 10.64] | < 100 nM | > 5000 nM | > 5000 nM |
| COC(=O)[C@H]1CC[C@@H](c2nc3c(-c4cnc5ccccc5c4)cnn3c(N)c2Br)CN1 (stereo in doubt) [Compound 2.7] | 101 to 200 nM | > 5000 nM | > 5000 nM |
| Nc1c(Br)c(C2CCS(=O)(=O)CC2)nc2c(-c3cnc4ccccc4c3)cnn12 [Compound 8.15] | < 100 nM | > 5000 nM | > 5000 nM |
| Cn1cc(-c2cnn3c(N)c(Br)c(C4CCC(C(=O)O)C4)nc23)cn1 (stereo not drawn) [Compound 4.5] | 101 to 200 nM | > 5000 nM | > 5000 nM |
| Nc1c(Br)c([C@H]2CC[C@H]3C(=O)NC(=O)N3C2)nc2c(-c3cnc4ccccc4c3)cnn12 [Compound 3.10] | < 100 nM | > 5000 nM | 501 to 1000 nM |
| COC(=O)[C@@H]1CC[C@H](c2cc(N)n3ncc(-c4cnn(C)c4)c3n2)CN1 (stereo in doubt) [Compound 2.5] | 101 to 200 nM | 501 to 1000 nM | > 5000 nM |
| CS(=O)(=O)NC(=O)C[C@H]1CC[C@H](c2nc3c(-c4cnc5ccccc5c4)cnn3c(N)c2Br)CC1 [Compound 7.5] | < 100 nM | > 5000 nM | > 5000 nM |
